Source: US5677297A, “Benzazepine-, benzoxazepine- and benzothiazepine-n-acetic acid derivatives, process for their preparation and pharmaceutical compositions containing them” (Solvay Pharmaceuticals GmbH, priority 1995, dated 1997)
pIC50, pKi: −log10 of the molar value.

How the values were obtained:
[1] = target: neutral endopeptidase (NEP), purified NEP (E.C.3.4.24.11) (Homo sapiens, UniProt P08473); experiment: In vitro investigation of the NEP-inhibitory effect (hydrolytic degradation of met-enkephalin); format: biochemical; details: substrate met-enkephalin, 37° C., pH 7.4
Protocol: 2. In vitro investigation of the NEP-inhibitory effect of the substances and determination of the affinity of the substance molecules for the enzyme molecule. […] The Ki (inhibitor constant) of each substance was determined as a measure of its inhibitory activity. The Ki of a test substance with enzyme-inhibiting activity is the dissociation constant for the enzyme/test substance complex or the (enzyme/substrate)--test substance complex and has units of concentration.
To carry out the test, respective 100 μl samples of various incubation solutions containing 10 ng of purified NEP (E.C.3.4.24.11) and in each case different amounts of test substance and of substrate (met-enkephalin)and 50 mM tris buffer (=tris(hydroxymethyl)aminomethane/HCl, pH 7.4) were prepared.
For each test substance, 24 different incubation solutions were prepared with 3 different test substance concentrations respectively combined with met-enkephalin contents of 2, 5, 7, 10, 12, 15, 40 and 100 μm.
In each test, two types of control incubation solutions were also processed, on the one hand enzyme controls which contain no test substance, and on the other hand substrate controls which contain neither enzyme nor test substance.
The incubation solutions were incubated in a shaking water bath at 37° C. for 45 minutes. The enzyme reaction was started after 15 minutes by adding the substrate (metenkephalin) and was stopped at the end of the incubation time by heating at 95° C. for 5 minutes. The stopped incubation solution was then centrifuged at 12,000×g for 3 minutes, and the concentrations of unreacted substrate and of hydrolysis products formed by the enzymatic reaction were determined in the supernatant. For this purpose, samples of each of the respective supernatants were fractionated by HPLC (high-pressure liquid chromatography) on hydrophobized silica gel, and the products of the enzymatic reaction and unreacted substrate were determined by photometry at a wavelength of 205 nm. The HPLC separation was carried out using a column (4.6×250 mm) which contains Encapharm™ 100 RP18 having an average particle size of 5 μm as reversed phase separation material. The solvent flow rate was 1.4 ml/min, and the column was warmed to 40° C. Mobile phase A was 5 mM H3 PO4, pH 2.5, and mobile phase B was acetonitrile +1% 5 mM H3 PO4, pH 2.5.
The Ki for each test substance was calculated in a known manner from the concentrations of hydrolysis products and unreacted substrate measured in the various samples. […] The example numbers indicated in Table B refer to the following preparation examples.

[2] = parameters: species or system mouse (male); details: mouse, in vivo, po, 4320 min
Protocol: 1. Determination of the minimum toxic dose
Male mice weighing 20-25 g received oral administrations of maximum doses of 300 mg/kg of the test substance. The animals were carefully observed for signs of toxicity for 3 hours. In addition, all signs and deaths over a period of 72 hours after administration were recorded. Accompanying signs were likewise observed and recorded. If death or signs of severe toxicity were observed, further mice were given increasingly lower doses until signs of toxicity no longer appeard. The lowest dose which caused death or signs of severe toxicity is indicated in following Table A as the minimum toxic dose. The example numbers listed in Table A refer to the following preparation examples.

[3] = In vivo determination of the effect on diuresis/natriuresis in volume-loaded rats; parameters: species or system rat (male Wistar); details: volume loading 120 minutes after administration, urine collected over 60 min
Protocol: 4. In vivo determination of the effect of the substances on diuresis/natriuresis in volume-loaded rats.
The in vivo activity was investigated in volume-loaded rats. In this experiment a high cardiac filling pressure was caused by infusion of isotonic sodium chloride solution, which results in ANP release and thus diuresis/natriuresis.
The tests are carried out with male Wistar rats having a body weight of 200-400 g. Under neuroleptanalgesia (fentanyl; Hypnorm™, manufactured by Janssen), a catheter was placed in the right femoral vein for the baseline infusion and the volume loading with isotonic sodium chloride solution. After the abdominal cavity had been opened, a second catheter was inserted into the bladder, and the urethra was tied off so that it was possible to measure the urine volume, natriuresis and kaliuresis.
The abdominal cavity was closed again and the animals received a continuous infusion with sodium chloride solution (0.5 ml/100 g body weight) throughout the 2 hours of the test. After an equilibration period of 30 minutes, in a preliminary phase before the test substance was given, urine samples were collected three times over a period of 10 minutes in each case. These preliminary values ("predrug" values) were determined in order to check that there was a continuous flow of urine in the test animals.
The solutions containing test substances were then administered intravenously (bolus injection into the femoral vein) or orally (by gavage) to groups of 10 rats each. With both modes of administration, in each case one control group of animals received only placebo solutions which contained no active substance. 5 Minutes after i.v. administration or 120 minutes after oral administration of the substances, the rats were loaded with an increased volume of sodium chloride solution i.v. (2 ml/100 g body weight in 2 minutes) and the urine was collected over a period of 60 min. The amounts of urine produced in this period were determined, and the sodium and potassium contents therein were measured. The increase in excretion which took place under volume loading by comparison with the preliminary values was deduced from the resulting amounts of urine.
Furthermore, the amounts of sodium and potassium excreted under volume loading after administration of test substance are also indicated as a percentage of the amounts of sodium and potassium excreted under volume loading after placebo administration.

[4] = target: T1, endothelin-converting enzyme (ECE) (Homo sapiens, UniProt P42892); experiment: In vitro investigation of the ECE-inhibitory effect (recombinant human ECE in CHO cell membrane fraction); format: biochemical; details: 24 μM synthetic peptide substrate, pH 7.0, 37° C., 60 min
T1 construct: expressed in transfected cells; host or cells: CHO cells (Chinese hamster ovary), membrane fraction
T1 sequence (P42892 1-770): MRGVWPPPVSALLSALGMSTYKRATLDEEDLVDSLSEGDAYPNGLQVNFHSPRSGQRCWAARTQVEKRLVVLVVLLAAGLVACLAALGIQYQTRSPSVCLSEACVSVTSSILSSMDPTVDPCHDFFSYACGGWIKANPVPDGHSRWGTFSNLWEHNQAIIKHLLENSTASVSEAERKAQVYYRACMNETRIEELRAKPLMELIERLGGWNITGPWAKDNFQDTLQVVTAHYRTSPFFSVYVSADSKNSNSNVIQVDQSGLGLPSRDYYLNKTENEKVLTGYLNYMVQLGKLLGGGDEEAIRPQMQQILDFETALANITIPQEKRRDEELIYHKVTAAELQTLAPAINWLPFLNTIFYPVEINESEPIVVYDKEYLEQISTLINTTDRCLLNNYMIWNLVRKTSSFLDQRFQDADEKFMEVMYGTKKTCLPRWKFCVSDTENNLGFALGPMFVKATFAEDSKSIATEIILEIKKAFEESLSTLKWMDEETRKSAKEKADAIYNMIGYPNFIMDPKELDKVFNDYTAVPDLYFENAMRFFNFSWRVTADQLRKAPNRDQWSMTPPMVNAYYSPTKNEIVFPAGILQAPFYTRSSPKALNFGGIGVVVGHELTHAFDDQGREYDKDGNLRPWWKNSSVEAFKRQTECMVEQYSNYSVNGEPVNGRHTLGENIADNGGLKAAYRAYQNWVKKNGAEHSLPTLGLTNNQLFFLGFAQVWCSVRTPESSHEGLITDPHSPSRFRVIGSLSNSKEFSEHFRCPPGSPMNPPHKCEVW
Protocol: 3. In vitro investigations of the ECE-inhibitory effect of the substances.
The IC50 of the substances was determined as a measure of their inhibitory activity. The IC50 of a test substance with enzyme-inhibiting activity is the concentration of the test substance at which 50% of the enzymatic activity of ECE is inhibited.
Preparation of the ECE-containing endothelial cell membrane fraction.
Egg cells from the Chinese hamster (Chinese hamster ovary cells, hereinafter CHO cells) in which there was recombinant expression of human ECE [see Schmidt et al., Federation of European Biochemical Societies Letters 356 238-43 (1994)] were lysed, and the cell membranes were removed by centrifugation at 10,000×g for 10 min. The cell membranes were washed by resuspension and repeated centrifugation three times. The ECE-containing cell membrane fraction was resuspended in 100 mM tris/HCl buffer (tris(hydroxymethyl)aminomethane/HCl, pH 7.0, containing 250 mM NaCl) and stored frozen at -70° C. before the enzyme test.
To carry out the test, respective 100 μl samples of various incubation solutions each containing 5 μg protein from an ECE-containing preparation of endothelial cell membranes and different amounts of test substance and 24 μM substrate (synthetic peptide: H2 N-Asp-Ile-Ala-Trp-Phe-Asn-Thr-Pro-Glu-His-Val-Val-Pro-Tyr-Gly-Leu-Gly-COOH) (SEQ ID NO:1) and 100 mM tris buffer (tris(hydroxymethyl)aminomethane/HCl, pH 7.0, containing 250 mM sodium chloride) were prepared. […]
The incubation solutions were preincubated at 37° C. for 15 min before the substrate was added. […] The hydrolysis products H2N-Asp-Ile-Ala-Trp-COOH (SEQ ID NO:2) and H2 N-Phe-Asn-Thr-Pro-Glu-His-Val-Val-Pro-Tyr-Gly-Leu-Gly-COOH (SEQ ID NO:3) formed from the substrate by the enzymatic reaction were determined with the aid of high-pressure liquid chromatography (HPLC). […] The IC50 was calculated for each test substance in a known manner from the concentrations of hydrolysis products measured in the various samples.

Sequence of neutral endopeptidase (NEP), purified NEP (E.C.3.4.24.11) (P08473 whole entry): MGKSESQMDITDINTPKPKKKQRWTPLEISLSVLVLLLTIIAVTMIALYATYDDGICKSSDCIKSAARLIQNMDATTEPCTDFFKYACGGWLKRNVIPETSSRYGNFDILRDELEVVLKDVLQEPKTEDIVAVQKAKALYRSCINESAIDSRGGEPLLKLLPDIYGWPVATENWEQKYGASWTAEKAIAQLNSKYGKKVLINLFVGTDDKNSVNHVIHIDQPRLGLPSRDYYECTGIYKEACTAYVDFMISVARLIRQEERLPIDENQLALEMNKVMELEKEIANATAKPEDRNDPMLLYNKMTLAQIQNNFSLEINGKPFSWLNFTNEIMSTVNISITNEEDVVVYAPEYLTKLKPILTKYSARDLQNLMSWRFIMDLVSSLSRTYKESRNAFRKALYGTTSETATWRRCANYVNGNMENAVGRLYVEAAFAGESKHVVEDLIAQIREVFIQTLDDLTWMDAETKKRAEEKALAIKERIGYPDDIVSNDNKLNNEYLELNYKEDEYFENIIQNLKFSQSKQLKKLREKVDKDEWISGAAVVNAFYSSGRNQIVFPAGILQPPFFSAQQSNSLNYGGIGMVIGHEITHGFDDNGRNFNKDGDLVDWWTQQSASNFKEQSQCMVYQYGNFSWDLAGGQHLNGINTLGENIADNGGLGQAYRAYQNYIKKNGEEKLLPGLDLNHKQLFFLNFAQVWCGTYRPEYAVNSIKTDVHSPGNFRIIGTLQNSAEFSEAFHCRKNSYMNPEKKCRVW

Row | Compound | pKi [1] | Minimum toxic dose [2] | also measured
1 | O=C(O)CN1C(=O)C(NC(=O)C2(CC(CCc3cccc4ccccc34)C(=O)O)CCCC2)CCc2ccccc21 (stereo not drawn) [Example 24] | 9.00 | > 300 mg/kg | –
2 | O=C(O)CN1C(=O)[C@@H](NC(=O)C2(CC(CCOc3ccc(F)cc3)C(=O)O)CCCC2)CSc2ccccc21 (stereo partly drawn) [Example 13, (3R)-3-{1-[2'-Carboxy-4'-(4-fluorophenoxy)butyl]cyclopentane-1-carbonylamino}-4-oxo-3,4-dihydro-1,5-benzothiazepine-5(2H)-acetic acid] | 9.12 | – | –
3 | COCCOC[C@H](CC1(C(=O)N[C@H]2COc3ccccc3N(CC(=O)O)C2=O)CCCC1)C(=O)O [Example 11, (3S,2'S)-3-{1-[2'-Carboxy-3'-(2-methoxyethoxy)propyl]cyclopentane-1-carbonylamino}-4-oxo-3,4-dihydro-1,5-benzoxazepine-5(2H)-acetic acid] | 8.59 | – | –
4 | O=C(O)CN1C(=O)C(NC(=O)C2(CC(CCc3ccccc3)C(=O)O)CCCC2)CCc2ccccc21 (stereo not drawn) [Example 6, 3-[1-(2'-Carboxy-4'-phenylbutyl)cyclopentane-1-carbonylamino]-2,3,4,5-tetrahydro-2-oxo-1H-1-benzazepine-1-acetic acid] | 9.17 | > 300 mg/kg | –
5 | CCOC(=O)[C@H](CCc1ccccc1)CC1(C(=O)N[C@H]2CCc3ccccc3N(CC(=O)O)C2=O)CCCC1 [Example 4, (3S,2'R)-3-{1-[2'-(Ethoxycarbonyl)-4'-phenylbutyl]cyclopentane-1-carbonylamino}-2,3,4,5-tetrahydro-2-oxo-1H-1-benzazepine-1-acetic acid] | – | – | Increase in the excretion of urine under volume loading after administration of test substance as % based on the increase after placebo administration ([3]; 15 mg/kg p.o.): 196.5%; Increase in the excretion of urine under volume loading after administration of test substance as % based on the increase after placebo administration ([3]; 51 mg/kg p.o.): 271%
6 | O=C(O)CN1C(=O)[C@@H](NC(=O)C2(C[C@@H](CCc3cccc4ccccc34)C(=O)O)CCCC2)CCc2ccccc21 [Example 39] | – | – | pIC50 [4]: 6.28
7 | O=C(O)CN1C(=O)[C@@H](NC(=O)C2(CC(Cc3ccccc3)C(=O)O)CCCC2)CCc2ccccc21 (stereo partly drawn) [Example 29] | 8.97 | – | –
8 | O=C(O)CN1C(=O)C(NC(=O)C2(CC(CCOc3ccc(F)cc3)C(=O)O)CCCC2)CCc2ccccc21 (stereo not drawn) [Example 26] | 8.91 | – | –
9 | O=C(O)CN1C(=O)[C@@H](NC(=O)C2(C[C@@H](CCc3ccccc3)C(=O)O)CCCC2)CCc2ccccc21 [Example 37] | – | > 300 mg/kg | –
10 | O=C(O)CN1C(=O)C(NC(=O)C2(CC(Cc3cccc4ccccc34)C(=O)O)CCCC2)CCc2ccccc21 (stereo not drawn) [Example 38] | – | – | pIC50 [4]: 5.66
11 | COCCOC[C@H](CC1(C(=O)N[C@H]2CCc3ccccc3N(CC(=O)O)C2=O)CCCC1)C(=O)O [Example 22] | 8.67 | – | –
12 | O=C(O)CN1C(=O)C(NC(=O)C2(CC(Cc3ccccc3)C(=O)O)CCCC2)CCc2ccccc21 (stereo not drawn) [Example 27] | – | > 300 mg/kg | –
